Source: ChEMBL document CHEMBL1151757, “Synthesis, radiosynthesis, and biological evaluation of fluorine-18-labeled 2beta-carbo(fluoroalkoxy)-3beta-(3'-((Z)-2-haloethenyl)phenyl)nortropanes: candidate radioligands for in vivo imaging of the serotonin transporter with positron emission tomography” (J Med Chem, 2008)

Columns and labels:
[1] = Ratio of drug uptake in pons to cerebellum in anesthetized cynomolgus monkey after 85 mins postinjection; type: ADME, organism-based, Macaca fascicularis; conditions: in vivo
[2] = Ratio of drug uptake in pons to cerebellum in anesthetized cynomolgus monkey after 95 mins postinjection; type: ADME, organism-based, Macaca fascicularis; conditions: in vivo
[3] = Ratio of drug uptake in pons to cerebellum in anesthetized cynomolgus monkey after 125 mins postinjection; type: ADME, organism-based, Macaca fascicularis; conditions: in vivo
[4] = Ratio of drug uptake in medulla to cerebellum in anesthetized cynomolgus monkey after 1.5 mins postinjection; type: ADME, organism-based, Macaca fascicularis; conditions: in vivo, 0.025 h
[5] = Ratio of drug uptake in medulla to cerebellum in anesthetized cynomolgus monkey after 195 mins postinjection; type: ADME, organism-based, Macaca fascicularis; conditions: in vivo, 3.25 h
[6] = Drug uptake in anesthetized cynomolgus monkey brain occipital lobe after 6.5 mins postinjection; type: ADME, organism-based, Macaca fascicularis; design: unit not given here; conditions: in vivo
[7] = Drug uptake in anesthetized cynomolgus monkey brain occipital lobe after 9.5 mins postinjection; type: ADME, organism-based, Macaca fascicularis; conditions: in vivo
[8] = Drug uptake in anesthetized cynomolgus monkey brain occipital lobe after 65 mins postinjection; type: ADME, organism-based, Macaca fascicularis; conditions: in vivo
[9] = Drug uptake in anesthetized cynomolgus monkey brain occipital lobe after 105 mins postinjection; type: ADME, organism-based, Macaca fascicularis; conditions: in vivo, 1.75 h
[10] = Drug uptake in anesthetized cynomolgus monkey brain frontal lobe after 2.5 mins postinjection; type: ADME, organism-based, Macaca fascicularis; conditions: in vivo
[11] = Drug uptake in anesthetized cynomolgus monkey brain frontal lobe after 18.5 mins postinjection; type: ADME, organism-based, Macaca fascicularis; conditions: in vivo
[12] = Drug uptake in anesthetized cynomolgus monkey brain frontal lobe after 27.5 mins postinjection; type: ADME, organism-based, Macaca fascicularis; conditions: in vivo
[13] = Drug uptake in anesthetized cynomolgus monkey brain frontal lobe after 35 mins postinjection; type: ADME, organism-based, Macaca fascicularis; conditions: in vivo
[14] = Drug uptake in anesthetized cynomolgus monkey brain frontal lobe after 95 mins postinjection; type: ADME, organism-based, Macaca fascicularis; conditions: in vivo
[15] = Drug uptake in anesthetized cynomolgus monkey brain frontal lobe after 215 mins postinjection; type: ADME, organism-based, Macaca fascicularis; conditions: in vivo
[16] = Ratio of drug uptake in occipital lobe to cerebellum in anesthetized cynomolgus monkey after 175 mins postinjection; type: ADME, organism-based, Macaca fascicularis; conditions: in vivo
Putamen [17] = experiment: Drug uptake in anesthetized cynomolgus monkey brain putamen after 145 mins postinjection; type: ADME, organism-based, Macaca fascicularis; conditions: in vivo
Putamen [18] = experiment: Drug uptake in anesthetized cynomolgus monkey brain putamen after 165 mins postinjection; type: ADME, organism-based, Macaca fascicularis; conditions: in vivo, 2.75 h
Putamen [19] = experiment: Drug uptake in anesthetized cynomolgus monkey brain putamen after 235 mins postinjection; type: ADME, organism-based, Macaca fascicularis; conditions: in vivo
[20] = Ratio of drug uptake in occipital lobe to cerebellum in anesthetized cynomolgus monkey after 235 mins postinjection; type: ADME, organism-based, Macaca fascicularis; conditions: in vivo
[21] = Ratio of drug uptake in frontal lobe to cerebellum in anesthetized cynomolgus monkey after 95 mins postinjection; type: ADME, organism-based, Macaca fascicularis; conditions: in vivo
Pons [22] = experiment: Drug uptake in anesthetized cynomolgus monkey brain pons after 0.5 mins postinjection; type: ADME, organism-based, Macaca fascicularis; conditions: in vivo
Pons [23] = experiment: Drug uptake in anesthetized cynomolgus monkey brain pons after 3.5 mins postinjection; type: ADME, organism-based, Macaca fascicularis; conditions: in vivo
Pons [24] = experiment: Drug uptake in anesthetized cynomolgus monkey brain pons after 4.5 mins postinjection; type: ADME, organism-based, Macaca fascicularis; conditions: in vivo, 0.075 h
Pons [25] = experiment: Drug uptake in anesthetized cynomolgus monkey brain pons after 105 mins postinjection; type: ADME, organism-based, Macaca fascicularis; conditions: in vivo, 1.75 h
Thalamus = experiment: Drug uptake in anesthetized cynomolgus monkey brain thalamus after 205 mins postinjection; type: ADME, organism-based, Macaca fascicularis; conditions: in vivo
Pons [26] = experiment: Drug uptake in anesthetized cynomolgus monkey brain pons after 195 mins postinjection; type: ADME, organism-based, Macaca fascicularis; conditions: in vivo, 3.25 h
Pons [27] = experiment: Drug uptake in anesthetized cynomolgus monkey brain pons after 205 mins postinjection; type: ADME, organism-based, Macaca fascicularis; conditions: in vivo
[28] = Drug uptake in anesthetized cynomolgus monkey brain cerebellum after 205 mins postinjection; type: ADME, organism-based, Macaca fascicularis; conditions: in vivo
[29] = Ratio of drug uptake in frontal lobe to cerebellum in anesthetized cynomolgus monkey after 235 mins postinjection; type: ADME, organism-based, Macaca fascicularis; conditions: in vivo
Caudate [30] = experiment: Drug uptake in anesthetized cynomolgus monkey brain caudate after 195 mins postinjection; type: ADME, organism-based, Macaca fascicularis, Caudate nucleus; conditions: in vivo, 3.25 h
Caudate [31] = experiment: Drug uptake in anesthetized cynomolgus monkey brain caudate after 205 mins postinjection; type: ADME, organism-based, Macaca fascicularis, Caudate nucleus; conditions: in vivo
[32] = Ratio of drug uptake in caudate to cerebellum in anesthetized cynomolgus monkey after 18.5 mins postinjection; type: ADME, organism-based, Macaca fascicularis; conditions: in vivo
[33] = Ratio of drug uptake in caudate to cerebellum in anesthetized cynomolgus monkey after 155 mins postinjection; type: ADME, organism-based, Macaca fascicularis; conditions: in vivo

O=C(OCCC[18F])C1C2CCC(CC1c1cccc(/C=C\I)c1)N2 (centres undefined)
Ratio [1]: 1.1
Ratio [2]: 1.3
Ratio [3]: 1.4
Ratio [4]: 1.3
Ratio [5]: 1.7
Drug uptake [6]: 2.83
Drug uptake [7]: 3.14
Drug uptake [8]: 3.86
Drug uptake [9]: 3.18
Drug uptake [10]: 0.5
Drug uptake [11]: 2.5
Drug uptake [12]: 2.72
Drug uptake [13]: 2.85
Drug uptake [14]: 2.68
Drug uptake [15]: 1.99
Ratio [16]: 1.1
Drug uptake (Putamen [17]): 3.91
Drug uptake (Putamen [18]): 3.74
Drug uptake (Putamen [19]): 3.02
Ratio [20]: 1
Ratio [21]: 0.8
Drug uptake (Pons [22]): 0.01
Drug uptake (Pons [23]): 1.71
Drug uptake (Pons [24]): 1.92
Drug uptake (Pons [25]): 4.01
Drug uptake (Thalamus): 3.14
Drug uptake (Pons [26]): 3.26
Drug uptake (Pons [27]): 3.34
Drug uptake [28]: 1.91
Ratio [29]: 0.9
Drug uptake (Caudate [30]): 2.74
Drug uptake (Caudate [31]): 2.65
Ratio [32]: 0.7
Ratio [33]: 1.4
